In the supplement of paper PMC10307832:

Assays:
Assay in all cases: relative viability (nuclei count vs DMSO), 5 days (fraction); higher = more cells survive
[1] = compound: CCOC1=CC=CC=C1N=NC2=C(NN(C2=O)C3=NC(=CS3)C4=CC=CC=C4)C [BAM7] + C[C@@H](Oc1cc(-c2cnn(C3CCNCC3)c2)cnc1N)c1c(Cl)ccc(F)c1Cl [Crizotinib] (partner 1 µM)
Summary of the method: (§1)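 Dosing by pin tool came one day after lung cancer cell lines were seeded in 1536-well plates, using either one drug or a fixed anchor-drug dose plus five library-drug doses (not always all listed) in √10 steps. After 5 days, nuclei were counted on 4× images. Relative viability is treated-well nuclei count divided by vehicle-well nuclei count, and values are medians of duplicate plates.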

[2] = compound: CCn1c(-c2nonc2N)nc2c(C#CC(C)(C)O)ncc(OC[C@H]3CCCNC3)c21 + Cc1cc(Nc2cc(N3CCN(C)CC3)nc(Sc3ccc(NC(=O)C4CC4)cc3)n2)n[nH]1 [Tozasertib] (partner 0.1 µM)
Summary of the method: as §1

[3] = compound: CCOC1=CC=CC=C1N=NC2=C(NN(C2=O)C3=NC(=CS3)C4=CC=CC=C4)C [BAM7] + Nc1ncn([C@H]2C[C@H](O)[C@@H](CO)O2)c(=O)n1 [Decitabine] (partner 2 µM)
Summary of the method: as §1

[4] = compound: CCn1c(-c2nonc2N)nc2c(C#CC(C)(C)O)ncc(OC[C@H]3CCCNC3)c21 + O=C(CCCCCCC(=O)Nc1ccccc1)NO [Vorinostat] (partner 1 µM)
Summary of the method: as §1

Cell Line	relative viability ([1]; first compound 0.5 µM)	relative viability ([1]; first compound 5 µM)	relative viability ([1]; first compound 15.81 µM)	relative viability ([1]; first compound 50 µM)	relative viability ([2]; first compound 0.01 µM)	relative viability ([2]; first compound 0.03162 µM)	relative viability ([2]; first compound 0.1 µM)	relative viability ([2]; first compound 0.3162 µM)	relative viability ([2]; first compound 1 µM)	relative viability ([3]; first compound 0.5 µM)	relative viability ([3]; first compound 5 µM)	relative viability ([3]; first compound 15.81 µM)	relative viability ([3]; first compound 50 µM)	relative viability ([4]; first compound 0.01 µM)	relative viability ([4]; first compound 0.03162 µM)	relative viability ([4]; first compound 0.1 µM)	relative viability ([4]; first compound 0.3162 µM)	relative viability ([4]; first compound 1 µM)
NCI-H1437	1	1.16	0.53	0.937	0.38	0.461	0.422	0.39	0.432	0.527	0.572	0.543	0.482	0.812	0.794	0.955	0.791	0.952
COR-L23	0.785	0.685	0.601	0.604	0.202	0.19	0.235	0.188	0.18	0.428	0.453	0.461	0.468	0.433	0.558	0.437	0.368	0.387
ABC-1	1.49	1.34	0.987	1.21	0.167	0.169	0.176	0.151	0.154	1.06	0.983	1.34	1.06	1.03	–	1.06	1.08	1.23
SW 900	–	–	–	–	0.626	0.747	0.646	0.561	0.579	–	0.465	–	0.494	0.524	0.503	0.386	0.312	0.569
NCI-H838	0.867	0.904	0.803	0.783	0.276	0.295	0.29	0.248	0.253	0.514	0.447	0.452	0.478	0.728	0.786	0.722	0.685	0.711
NCI-H1648	–	–	–	–	–	0.527	0.466	0.444	0.574	0.395	0.642	0.432	0.404	0.591	0.418	0.365	0.367	0.315
A549	0.85	0.861	0.745	0.781	–	–	–	–	–	0.288	0.29	0.251	0.288	–	–	–	–	–
A-427	0.927	1	0.814	0.817	0.243	0.227	0.251	0.24	0.188	0.531	0.551	0.543	0.569	0.857	0.858	0.844	0.783	0.889
NCI-H1792	0.984	1.06	1.06	0.906	–	–	–	–	–	0.557	0.458	0.48	0.516	–	–	–	–	–
